Reference: ChEMBL document CHEMBL4406882, “The plant-derived chalcone Xanthoangelol targets the membrane of Gram-positive bacteria” (Bioorg Med Chem, 2019)
The source made the active and inactive calls.

Assays:
Staphylococcus aureus [1] = assay: Induction of membrane integrity impairment in methicillin-resistant Staphylococcus aureus ATCC 700699 at 10 uM measured for 3 hrs by PI staining based fluorescence assay; assay type: functional, organism-based
Staphylococcus aureus [2] = assay: Induction of membrane integrity impairment in methicillin-resistant Staphylococcus aureus ATCC 700699 at 20 uM measured for 30 mins by DiOC2(3) probe based fluorescence assay; assay type: functional, organism-based
Staphylococcus aureus [3] = assay: Bactericidal activity against methicillin-resistant Staphylococcus aureus ATCC 700699 assessed as reduction in bacterial CFU at 4 times MIC measured for 30 mins; assay type: functional
Staphylococcus aureus [4] = assay: Antibacterial activity against mid-exponential growth phase of methicillin-resistant Staphylococcus aureus ATCC 700699 assessed as increase in cell lysis at 25 uM; assay type: functional, organism-based

Measured: Activity

COc1c(N2C[C@@H]3CCCN[C@@H]3C2)c(F)cc2c(=O)c(C(=O)O)cn(C3CC3)c12
inactive: all assays above
